These results are taken from US10450275B2, “Compounds and methods for treating cancer, neurological disorders, ethanol withdrawal, anxiety, depression, and neuropathic pain” (Board of Regents, The University of Texas System, priority 2013, dated 2019).

“And” between values parts separate entries of the source, which are not always exact repeats. Equal values may be shown once. Read-outs that look alike come from different tables or passages of the source.

Data set [1] has as its target fatty acid synthase (Homo sapiens, UniProt P49327). As to the kind of experiment: fatty acid synthase inhibition. In kind it is biochemical. As to conditions: read-out: Potency, fatty acid synthase inhibitor.
In data set [2] the test system is Y. pestis topoisomerase I. The format is biochemical. Conditions: 10 μM.
Data set [3] concerns the target T1, microphthalmia-associated transcription factor (MITF) (Homo sapiens, UniProt O75030).
T1 sequence (O75030 1-526): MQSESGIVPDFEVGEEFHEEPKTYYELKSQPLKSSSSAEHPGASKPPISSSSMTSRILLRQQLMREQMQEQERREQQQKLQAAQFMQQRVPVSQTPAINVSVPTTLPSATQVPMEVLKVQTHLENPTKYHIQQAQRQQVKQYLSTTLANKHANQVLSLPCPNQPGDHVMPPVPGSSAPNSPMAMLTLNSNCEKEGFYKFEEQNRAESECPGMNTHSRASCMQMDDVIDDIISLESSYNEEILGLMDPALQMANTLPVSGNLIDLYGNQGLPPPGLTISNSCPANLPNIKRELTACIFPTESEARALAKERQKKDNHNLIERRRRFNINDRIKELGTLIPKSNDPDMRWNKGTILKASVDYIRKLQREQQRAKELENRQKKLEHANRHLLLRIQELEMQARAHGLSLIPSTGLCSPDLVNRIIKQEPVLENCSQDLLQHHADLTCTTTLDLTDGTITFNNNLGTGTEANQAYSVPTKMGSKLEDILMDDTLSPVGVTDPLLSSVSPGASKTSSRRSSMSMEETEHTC
As to the kind of experiment: microphthalmia-associated transcription factor (MITF) activation. In kind it is cell-based. As to conditions: read-out: Potency (AC40), microphthalmia-associated transcription factor (MITF) activator.

For data set [4], the target named is serotonin 5A receptor (5HTR5A) (Homo sapiens, UniProt P47898). Nature of the data set: serotonin 5A receptor (5HTR5A) inverse agonist activity. In kind it is cell-based. As to conditions: 9.3 μM.
Chain of serotonin 5A receptor (5HTR5A) (P47898 whole entry): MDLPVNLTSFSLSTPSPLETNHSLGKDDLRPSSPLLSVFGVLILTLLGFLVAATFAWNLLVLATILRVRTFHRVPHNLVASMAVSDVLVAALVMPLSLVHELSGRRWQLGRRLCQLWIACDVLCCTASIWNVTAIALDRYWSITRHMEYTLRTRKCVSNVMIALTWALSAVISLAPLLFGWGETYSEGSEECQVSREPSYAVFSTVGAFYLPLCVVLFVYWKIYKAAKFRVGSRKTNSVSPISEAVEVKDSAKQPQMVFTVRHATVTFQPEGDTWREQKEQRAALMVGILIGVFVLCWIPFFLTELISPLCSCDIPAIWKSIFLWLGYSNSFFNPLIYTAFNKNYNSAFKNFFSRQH
Data set [5] concerns the target T2, human M1 muscarinic receptor (Homo sapiens, UniProt P11229).
T2 sequence (P11229 1-460): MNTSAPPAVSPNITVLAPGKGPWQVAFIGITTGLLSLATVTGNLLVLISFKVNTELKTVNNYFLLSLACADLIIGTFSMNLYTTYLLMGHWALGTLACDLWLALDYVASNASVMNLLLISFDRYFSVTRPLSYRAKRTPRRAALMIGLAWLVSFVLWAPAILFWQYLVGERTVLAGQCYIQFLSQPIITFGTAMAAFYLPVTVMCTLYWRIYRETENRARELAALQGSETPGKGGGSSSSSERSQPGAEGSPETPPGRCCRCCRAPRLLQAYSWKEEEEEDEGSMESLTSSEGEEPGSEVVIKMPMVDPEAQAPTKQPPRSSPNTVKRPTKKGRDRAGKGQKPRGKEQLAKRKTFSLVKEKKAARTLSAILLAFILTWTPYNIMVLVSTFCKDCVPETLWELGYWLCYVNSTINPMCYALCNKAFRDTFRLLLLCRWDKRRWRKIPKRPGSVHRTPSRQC
Nature of the data set: human M1 muscarinic receptor antagonist activity. In kind it is cell-based. As to conditions: 3 μM.

Data set [6] has as its target mycobacterium tuberculosis bioA enzyme (Mycobacterium tuberculosis, UniProt P9WQ81). Nature of the data set: mycobacterium tuberculosis bioA enzyme inhibition. As to conditions: read-out: Potency, mycobacterium tuberculosis bioA enzyme inhibitor. In kind it is biochemical.
The nature of data set [7]: Pharmacokinetic profile of JJS-1-166 in mice (plasma, LC-MS). Conditions: for bioavailability: relative to the area under the curve for IV administration. In kind it is in vivo, C57Bl/6j mice. The protocol: FIG. 1. Nine C57Bl/6j male mice (2-3 months old). Prior to PK evaluation, 3 animals were dosed with vehicle and were used to identify the standard curve using liquid chromatography-mass spectrometry (LC-MS) and as controls. Animals were randomized into 3 groups (n=3 per group). One group dosed Intravenously (IV), one group orally (PO), and one group subcutaneously (SC) with 10 mg/kg of the compound. […] (The first 4 collections are retro-orbital and the last one is terminal together with collection of the brain. Brain and blood will be flash frozen in liquid nitrogen and kept in −80° C. for later analysis. The concentration of compounds in the blood samples and brain tissues will be measured using LC-MS method.) We determined the blood brain barrier (BBB) permeability and pharmacokinetic (PK) profile of JJS-1-166 (phase I), and subsequently investigated the efficacy of JJS-1-166 in an Alzheimer's disease (AD) mouse model. LC-MS/MS Method Development for Compound JJS-1-166 [table] [table]

Data set [8] is described as follows: Blood brain barrier permeability / brain concentration and brain clearance of JJS-1-166 in mice. The format is in vivo, C57Bl/6j mice. As to conditions: for brain exposure / concentration at 3 h: mouse; for concentration at 3 h: male, C57Bl/6j, brain, 10 mg/kg. As to the method:
FIG. 1. Nine C57Bl/6j male mice (2-3 months old). Prior to PK evaluation, 3 animals were dosed with vehicle and were used to identify the standard curve using liquid chromatography-mass spectrometry (LC-MS) and as controls. Animals were randomized into 3 groups (n=3 per group). One group dosed Intravenously (IV), one group orally (PO), and one group subcutaneously (SC) with 10 mg/kg of the compound. From each animal blood will be collected 5 times: baseline (before the single dose); 5 minute; 30 minute; 1 hour; 3 hour after the single dose of the compound. (The first 4 collections are retro-orbital and the last one is terminal together with collection of the brain. Brain and blood will be flash frozen in liquid nitrogen and kept in −80° C. for later analysis. The concentration of compounds in the blood samples and brain tissues will be measured using LC-MS method.) FIG. 6. 3 day brain clearance study. A C57Bl/6j mouse was treated with 10 mg/kg JJS-1-166. After 3 days, the level of JJS-1-166 in the brain was assessed to ensure that all or a majority of the drug had been cleared. We determined the blood brain barrier (BBB) permeability and pharmacokinetic (PK) profile of JJS-1-166 (phase I), and subsequently investigated the efficacy of JJS-1-166 in an Alzheimer's disease (AD) mouse model. LC-MS/MS Method Development for Compound JJS-1-166 [table] [table]

Assay in data set [9]: as above
In kind it is in vivo, C57Bl/6j mice. Conditions: time point 24 h, individual animals.

Data set [10] has as its target T3, striatal-enriched protein tyrosine phosphatase (STEP) (Homo sapiens, UniProt P54829).
T3 sequence (P54829 1-565): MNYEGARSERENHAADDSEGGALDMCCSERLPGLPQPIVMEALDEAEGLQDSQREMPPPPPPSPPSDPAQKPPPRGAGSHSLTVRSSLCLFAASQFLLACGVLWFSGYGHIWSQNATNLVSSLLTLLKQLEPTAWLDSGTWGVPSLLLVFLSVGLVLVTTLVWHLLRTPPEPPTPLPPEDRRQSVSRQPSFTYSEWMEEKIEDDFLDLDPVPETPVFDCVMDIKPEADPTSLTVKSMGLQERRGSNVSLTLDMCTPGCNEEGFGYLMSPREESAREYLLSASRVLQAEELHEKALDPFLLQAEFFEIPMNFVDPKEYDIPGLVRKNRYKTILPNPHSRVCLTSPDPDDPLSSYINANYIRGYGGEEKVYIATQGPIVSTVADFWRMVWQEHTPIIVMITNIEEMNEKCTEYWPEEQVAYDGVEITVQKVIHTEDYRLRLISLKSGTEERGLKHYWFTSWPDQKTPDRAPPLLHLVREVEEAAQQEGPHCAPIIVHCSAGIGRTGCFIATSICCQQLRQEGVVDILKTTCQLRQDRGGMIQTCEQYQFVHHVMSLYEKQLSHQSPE
Nature of the data set: striatal-enriched protein tyrosine phosphatase (STEP) inhibition. The format is biochemical. As to conditions: read-out: Potency, striatal-enriched protein tyrosine phosphatase (STEP) inhibitor.

Setting [11] is: time point 3 h, individual animals.
[12] abbreviates: time point 72 h, individual animals.

Chain of fatty acid synthase (P49327 whole entry): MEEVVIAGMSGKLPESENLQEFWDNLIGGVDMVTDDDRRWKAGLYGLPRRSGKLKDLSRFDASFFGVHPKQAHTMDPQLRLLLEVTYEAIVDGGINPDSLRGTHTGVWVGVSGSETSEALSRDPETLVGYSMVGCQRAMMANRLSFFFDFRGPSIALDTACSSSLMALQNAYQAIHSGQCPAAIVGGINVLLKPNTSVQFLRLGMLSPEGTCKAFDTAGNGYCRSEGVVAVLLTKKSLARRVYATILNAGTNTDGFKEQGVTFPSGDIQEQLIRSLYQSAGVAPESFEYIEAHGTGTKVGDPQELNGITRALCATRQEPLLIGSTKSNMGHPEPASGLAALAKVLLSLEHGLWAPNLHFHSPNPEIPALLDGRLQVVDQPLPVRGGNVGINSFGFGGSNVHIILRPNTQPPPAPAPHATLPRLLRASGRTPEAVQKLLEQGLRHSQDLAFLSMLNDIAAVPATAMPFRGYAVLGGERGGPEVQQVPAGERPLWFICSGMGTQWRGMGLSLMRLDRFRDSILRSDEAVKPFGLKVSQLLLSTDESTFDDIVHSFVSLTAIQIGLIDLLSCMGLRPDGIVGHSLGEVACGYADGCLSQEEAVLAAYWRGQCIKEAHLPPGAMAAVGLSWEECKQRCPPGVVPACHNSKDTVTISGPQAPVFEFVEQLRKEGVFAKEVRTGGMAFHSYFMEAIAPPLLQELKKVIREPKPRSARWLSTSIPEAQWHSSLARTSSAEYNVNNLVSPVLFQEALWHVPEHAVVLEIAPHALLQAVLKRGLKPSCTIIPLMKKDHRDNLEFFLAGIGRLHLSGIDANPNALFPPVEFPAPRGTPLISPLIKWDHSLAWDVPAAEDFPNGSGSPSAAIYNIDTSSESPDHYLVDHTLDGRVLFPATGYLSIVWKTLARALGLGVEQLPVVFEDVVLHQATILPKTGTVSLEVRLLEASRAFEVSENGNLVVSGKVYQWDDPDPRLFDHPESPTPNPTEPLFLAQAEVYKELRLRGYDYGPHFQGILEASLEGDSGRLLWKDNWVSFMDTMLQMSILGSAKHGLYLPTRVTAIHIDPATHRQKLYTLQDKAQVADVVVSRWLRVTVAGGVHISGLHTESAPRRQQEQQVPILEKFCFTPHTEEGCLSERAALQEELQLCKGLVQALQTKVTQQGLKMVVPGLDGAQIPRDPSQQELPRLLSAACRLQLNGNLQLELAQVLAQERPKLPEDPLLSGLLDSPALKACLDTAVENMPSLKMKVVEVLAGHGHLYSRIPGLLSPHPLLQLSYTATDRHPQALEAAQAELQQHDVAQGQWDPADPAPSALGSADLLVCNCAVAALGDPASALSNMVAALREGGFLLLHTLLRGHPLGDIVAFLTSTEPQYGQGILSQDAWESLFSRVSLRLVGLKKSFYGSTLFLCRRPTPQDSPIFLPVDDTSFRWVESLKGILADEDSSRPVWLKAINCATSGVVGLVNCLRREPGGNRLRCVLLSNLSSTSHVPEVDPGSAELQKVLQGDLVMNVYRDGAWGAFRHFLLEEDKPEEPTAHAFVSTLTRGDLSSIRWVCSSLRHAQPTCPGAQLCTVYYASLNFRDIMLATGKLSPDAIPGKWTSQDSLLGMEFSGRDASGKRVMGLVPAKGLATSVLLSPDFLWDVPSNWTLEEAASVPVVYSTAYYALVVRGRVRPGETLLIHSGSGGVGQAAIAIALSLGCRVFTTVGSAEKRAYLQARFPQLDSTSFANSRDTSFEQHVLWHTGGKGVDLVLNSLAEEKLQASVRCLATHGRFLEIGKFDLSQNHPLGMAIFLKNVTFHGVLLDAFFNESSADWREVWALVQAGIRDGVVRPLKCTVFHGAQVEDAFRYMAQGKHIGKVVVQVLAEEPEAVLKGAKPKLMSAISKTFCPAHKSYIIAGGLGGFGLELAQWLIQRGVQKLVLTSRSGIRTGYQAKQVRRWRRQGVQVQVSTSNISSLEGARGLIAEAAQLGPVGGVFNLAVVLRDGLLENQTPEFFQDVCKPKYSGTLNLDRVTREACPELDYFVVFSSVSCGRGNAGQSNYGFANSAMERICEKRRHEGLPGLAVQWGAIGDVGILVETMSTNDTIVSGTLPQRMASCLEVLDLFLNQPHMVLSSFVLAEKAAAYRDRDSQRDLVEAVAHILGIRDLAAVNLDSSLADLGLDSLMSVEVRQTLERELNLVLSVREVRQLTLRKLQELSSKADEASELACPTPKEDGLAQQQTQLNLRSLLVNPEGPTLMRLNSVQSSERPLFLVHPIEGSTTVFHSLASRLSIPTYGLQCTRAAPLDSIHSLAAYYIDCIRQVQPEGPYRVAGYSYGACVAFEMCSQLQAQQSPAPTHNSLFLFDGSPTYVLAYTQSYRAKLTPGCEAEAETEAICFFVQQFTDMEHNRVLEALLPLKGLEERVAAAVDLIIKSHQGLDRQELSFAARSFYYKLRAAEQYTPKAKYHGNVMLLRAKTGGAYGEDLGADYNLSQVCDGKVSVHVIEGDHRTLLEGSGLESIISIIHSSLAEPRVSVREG
Chain of mycobacterium tuberculosis bioA enzyme (P9WQ81 whole entry): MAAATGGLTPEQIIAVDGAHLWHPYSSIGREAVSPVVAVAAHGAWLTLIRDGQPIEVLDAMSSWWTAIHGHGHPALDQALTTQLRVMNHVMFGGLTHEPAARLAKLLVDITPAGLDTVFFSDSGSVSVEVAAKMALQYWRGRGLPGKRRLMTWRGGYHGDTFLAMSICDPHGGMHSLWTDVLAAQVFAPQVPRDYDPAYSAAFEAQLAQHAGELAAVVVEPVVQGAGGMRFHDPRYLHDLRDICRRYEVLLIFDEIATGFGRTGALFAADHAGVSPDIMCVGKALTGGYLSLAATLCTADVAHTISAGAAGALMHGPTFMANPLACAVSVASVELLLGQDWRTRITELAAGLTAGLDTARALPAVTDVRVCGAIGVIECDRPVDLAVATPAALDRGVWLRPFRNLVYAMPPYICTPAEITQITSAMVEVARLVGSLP

Take `COc1ccc(NC(=S)N2CCN(c3ccc4c(c3)[C@@H]3CCN(C(=O)OCc5ccccc5)[C@H]4C3)CC2)c(OC)c1`: in data set [1], the inhibition at 15 µM worked out at 57%.
Regarding `FC(F)(F)c1ccc(-c2ccc3c(c2)[C@@H]2C[C@H]3CCN2Cc2ccccc2)cc1` (stereo in doubt) [21{2,7}, 2-Benzyl-8-(4-(trifluoromethyl)phenyl)-2,3,4,5-tetrahydro-1H-1,5-methanobenzo[c]azepine], the melting point (usually the temperature of the solid-liquid transition) is 101 to 103 °C.
As to `O=C(OCc1ccccc1)N1CC[C@@H]2C[C@H]1c1c(Cl)cccc12`, the “Potency, Y. pestis topoisomerase I inhibitor” value in [2] is recorded as 61% (10 μM).
As for `CCCCNc1ccc2c(c1)[C@@H]1C[C@H]2CCN1C(=O)OCc1ccccc1`, the EC40 in data set [3] came out at 3.3 µM.
With `Clc1cccc(CN2CC[C@@H]3C[C@H]2c2cc(N4CCCCC4)ccc23)c1`, the “Potency, serotonin 5A receptor (5HTR5A) inverse agonist” value in data set [4] is 27% (9.3 μM).
As for `O=C(c1cc(Cl)cc(Cl)c1)N1CC[C@@H]2C[C@H]1c1cc(N3CCCCC3)ccc12`, the “Potency, human M1 muscarinic receptor antagonist” value in data set [5] is listed as 69% (3 μM).
For `COc1ccc(-c2ccc3c(c2)[C@@H]2C[C@H]3CCN2)cc1`, the inhibition at 10 µM in data set [6] stood at 91%.
With `CN1CCN(c2ccc3c(c2)[C@H]2CC3CCN2C(=O)OCc2ccccc2)CC1` [JJS-1-166], the concentration at 24 h in data set [7] (C57Bl/6j, mouse, plasma, time point 24 h, individual animals, read-out: Drug concentration in the Plasma) came out at 0.14 ng/g; in [9] (C57Bl/6j, mouse, brain, 10 mg/kg, read-out: Drug concentration in the Brain), 1.76 ng/g. Moreover, the “plasma concentration (Cmax)” value in data set [7] (SC administration, 10 mg/kg, at 1 hour, mouse) is “greater than 300 ng/dL”; in data set [7] (intravenous (IV) administration, 10 mg/kg, at 5 minutes, mouse), “greater than 1500 ng/dL”; in data set [7] (oral (PO) administration, 10 mg/kg, at 30 min, mouse), “greater than 60 ng/dL”. Also, the “time for which detectable plasma levels were maintained” value in data set [7] (after SC, OP, and IV administration, mouse) is recorded as “greater than 150 minutes”. The concentration at 3 h in data set [7] (male, C57Bl/6j, mouse, plasma, 10 mg/kg, time point 3 h, individual animals, read-out: Drug concentration in the Plasma) was found to be 156 ng/g; in [8] (time point 3 h, individual animals, read-out: Drug concentration in the Brain), 1570 ng/g; in data set [8] (sc, 3 hours after subcutaneous (SC) administration, read-out: brain concentration) it was 15 ng/mL. Moreover, the bioavailability (commonly dose-corrected exposure relative to a reference, in per cent) in [7] (male, C57Bl/6j, plasma, oral, 10 mg/kg, mouse, read-out: OP bioavailability) came to 7%; in data set [7] (male, C57Bl/6j, plasma, subcutaneous, 10 mg/kg, mouse, read-out: SC bioavailability), 45%. The pharmacokinetic properties entry in [7] (mouse, overall statement) was “acceptable”. Further, the “Drug concentration in the Plasma” value was 136.0 ng/g and 209.0 ng/g in data set [7] (setting [11]); 0.163 ng/g and 0.0913 ng/g in data set [7] (time point 24 h, individual animals); “No Peak” in data set [7] (setting [12]). Further, the brain exposure entry in data set [8] (SC administration, 3 hours) is “high level of brain exposure”; in data set [8] (overall statement), “adequate brain exposure”. The “Drug concentration in the Brain” value in data set [8] (setting [11]) was 1100.0 ng/g and 1840.0 ng/g; in data set [8] (setting [12]) it was “No Peak”; in [9], 1.63 ng/g and 1.28 ng/g.
For the compound `N#Cc1ccc(C(=O)N2CC[C@@H]3C[C@H]2c2cc(-c4ccccc4)ccc23)cc1`, in data set [10], the inhibition at 20 µM worked out at 69%.
For the compound `COc1ccc(S(=O)(=O)N2CC[C@@H]3C[C@H]2c2cc(N4CCOCC4)ccc23)cc1` (stereo in doubt) [30{2,2,30}, 4-(2-((4-Methoxyphenyl)sulfonyl)-2,3,4,5-tetrahydro-1H-1,5-methanobenzo[c]azepin-8-yl)morpholine], the melting point is 176 to 177 °C.
